Measurements from patent publication US9168259B2 (GRÜNENTHAL GMBH, priority 2010, dated 2015).
pEC50: −log10 of the molar value.

Target: T1, KCNQ2/3 channels (Homo sapiens, UniProt O43525+O43526)
T1 construct: expressed in transfected cells
Assay: Fluorescence assay using a voltage sensitive dye (fluorimetry)
Type: cell-based
Settings: CHO-K1 cells expressing KCNQ2/3; for Emax: CHO-K1, plateau effect relative to saturated retigabine (50 μM) = 100%, negative values = antagonistic, read-out: Fluorimetry % efficacy (retigabine = 100%); for pEC50: IC50 where % efficacy is negative, read-out: Fluorimetry EC50/IC50

T1 sequence (O43526 whole entry): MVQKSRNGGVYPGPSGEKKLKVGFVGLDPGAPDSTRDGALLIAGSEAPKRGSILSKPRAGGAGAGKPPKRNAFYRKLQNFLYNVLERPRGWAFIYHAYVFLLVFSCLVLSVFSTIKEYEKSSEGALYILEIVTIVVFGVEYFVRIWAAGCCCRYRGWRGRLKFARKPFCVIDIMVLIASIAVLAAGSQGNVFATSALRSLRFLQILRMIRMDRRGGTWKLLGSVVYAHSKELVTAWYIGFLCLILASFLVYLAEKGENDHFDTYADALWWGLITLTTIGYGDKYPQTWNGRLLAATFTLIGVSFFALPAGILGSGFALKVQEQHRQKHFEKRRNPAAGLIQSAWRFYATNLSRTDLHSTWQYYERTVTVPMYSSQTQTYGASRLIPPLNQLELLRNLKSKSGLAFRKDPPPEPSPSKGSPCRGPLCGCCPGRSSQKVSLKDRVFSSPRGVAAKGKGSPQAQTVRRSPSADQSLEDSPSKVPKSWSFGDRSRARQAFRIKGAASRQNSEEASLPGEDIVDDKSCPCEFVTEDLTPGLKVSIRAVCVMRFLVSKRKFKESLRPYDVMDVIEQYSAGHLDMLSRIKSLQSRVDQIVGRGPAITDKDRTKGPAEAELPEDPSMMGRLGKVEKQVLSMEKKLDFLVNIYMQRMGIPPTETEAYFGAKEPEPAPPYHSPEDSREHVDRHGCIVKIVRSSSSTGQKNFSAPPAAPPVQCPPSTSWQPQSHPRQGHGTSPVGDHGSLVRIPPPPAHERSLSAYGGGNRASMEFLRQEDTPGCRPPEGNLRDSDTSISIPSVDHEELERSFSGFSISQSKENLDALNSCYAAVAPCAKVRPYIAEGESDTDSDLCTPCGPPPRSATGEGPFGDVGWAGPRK
T1 sequence (O43525 whole entry): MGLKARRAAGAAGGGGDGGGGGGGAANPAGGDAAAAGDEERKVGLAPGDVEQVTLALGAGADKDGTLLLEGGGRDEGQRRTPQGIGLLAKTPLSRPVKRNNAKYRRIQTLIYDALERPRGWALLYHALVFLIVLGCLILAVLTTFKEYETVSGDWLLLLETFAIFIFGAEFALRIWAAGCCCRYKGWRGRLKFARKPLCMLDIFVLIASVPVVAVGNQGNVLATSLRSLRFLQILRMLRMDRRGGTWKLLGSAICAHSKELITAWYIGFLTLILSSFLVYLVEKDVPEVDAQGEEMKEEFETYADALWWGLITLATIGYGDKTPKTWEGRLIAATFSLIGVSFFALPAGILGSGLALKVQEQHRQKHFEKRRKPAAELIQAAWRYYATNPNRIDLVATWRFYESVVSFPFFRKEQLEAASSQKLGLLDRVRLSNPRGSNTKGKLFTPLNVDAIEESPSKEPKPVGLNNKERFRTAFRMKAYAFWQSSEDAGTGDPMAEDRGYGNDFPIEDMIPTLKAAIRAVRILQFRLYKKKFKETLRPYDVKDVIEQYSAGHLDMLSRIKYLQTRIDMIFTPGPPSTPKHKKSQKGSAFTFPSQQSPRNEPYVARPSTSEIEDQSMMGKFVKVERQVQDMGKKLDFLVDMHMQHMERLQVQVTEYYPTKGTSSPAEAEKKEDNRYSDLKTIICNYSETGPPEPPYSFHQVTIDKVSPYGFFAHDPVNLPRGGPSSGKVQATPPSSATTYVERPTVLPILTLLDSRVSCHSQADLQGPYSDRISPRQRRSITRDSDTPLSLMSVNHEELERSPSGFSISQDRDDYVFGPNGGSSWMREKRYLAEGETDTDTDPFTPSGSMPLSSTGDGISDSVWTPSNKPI

Compound	Emax [%]	pEC50
CSc1nc(N2CCOC[C@H]2C)cc(C)c1C(=O)NCc1ccc(F)cc1 [Example 176, N-[(4-Fluorophenyl)-methyl]-4-methyl-6-[(3R)-3-methyl-morpholin-4-yl]-2-methylsulfanyl-pyridine-3-carboxylic acid amide]	215	6.87
CCSc1nc(N2CCCc3ccccc32)cc(C)c1C(=O)NCc1cccc(F)c1 [Example 304, 2-Ethylsulfanyl-N-[(3-fluorophenyl)-methyl]-4-methyl-6-(1,2,3,4-tetrahydro-quinolin-1-yl)-pyridine-3-carboxylic acid amide]	81	6.46
CCSc1nc(N(C)C2CCC(OC)CC2)cc(C)c1C(=O)NCc1cccc(F)c1 (stereo not drawn) [Example 259, 2-Ethylsulfanyl-N-[(3-fluorophenyl)-methyl]-6-[(4-methoxy-cyclohexyl)-methyl-amino]-4-methyl-pyridine-3-carboxylic acid amide]	133	6.53
CCSc1nc(N2CCOC[C@@H]2COC)cc(C)c1C(=O)NCc1ccc(Cl)cc1 [Example 257, N-[(4-Chlorophenyl)-methyl]-2-ethylsulfanyl-6-[(3S)-3-(methoxymethyl)-morpholin-4-yl]-4-methyl-pyridine-3-carboxylic acid amide]	125	7.64
CCSc1nc(N2CCOCC2)cc(C)c1C(=O)NCc1cccc(Cl)c1 [Example 125, N-[(3-Chlorophenyl)-methyl]-2-ethylsulfanyl-4-methyl-6-morpholin-4-yl-pyridine-3-carboxylic acid amide]	152	7.06
CCSc1nc(N(C)CCOC)cc(C)c1C(=O)NCCCC(C)(C)C [Example 211, N-(4,4-Dimethyl-pentyl)-2-ethylsulfanyl-6-(2-methoxy-ethyl-methyl-amino)-4-methyl-pyridine-3-carboxylic acid amide]	225	6.84
CCSc1nc(N2CCOCC2CC)cc(C)c1C(=O)NCc1cccc(F)c1 (stereo not drawn) [Example 178, 6-(3-Ethyl-morpholin-4-yl)-2-ethylsulfanyl-N-[(3-fluorophenyl)-methyl]-4-methyl-pyridine-3-carboxylic acid amide]	147	7.27
CCSc1nc(N2CCOCC2)cc(C)c1C(=O)NCc1ccc(C#N)c(F)c1 [Example 268, N-[(4-Cyano-3-fluoro-phenyl)-methyl]-2-ethylsulfanyl-4-methyl-6-morpholin-4-yl-pyridine-3-carboxylic acid amide]	142	6.54
CCSc1nc(N2CCO[C@H](COC)C2)cc(C)c1C(=O)NCc1ccc(Cl)cc1 [Example 255, N-[(4-Chlorophenyl)-methyl]-2-ethylsulfanyl-6-[(2S)-2-(methoxymethyl)-morpholin-4-yl]-4-methyl-pyridine-3-carboxylic acid amide]	121	6.77
CCSc1nc(N2CCOCC2)cc(C)c1C(=O)NCCCc1cccc(F)c1 [Example 113, 2-Ethylsulfanyl-N-[3-(3-fluorophenyl)-propyl]-4-methyl-6-morpholin-4-yl-pyridine-3-carboxylic acid amide]	192	6.67
COc1nc(N2CCOCC2)cc(C)c1C(=O)NCCCC(C)(C)C [Example 86, N-(4,4-Dimethyl-pentyl)-2-methoxy-4-methyl-6-morpholin-4-yl-pyridine-3-carboxylic acid amide]	236	6.76
CCOc1nc(N2CCOC[C@H]2C)cc(C)c1C(=O)NCCCC(C)(C)C [Example 187, N-(4,4-Dimethyl-pentyl)-2-ethoxy-4-methyl-6-[(3R)-3-methyl-morpholin-4-yl]-pyridine-3-carboxylic acid amide]	242	7.31
CCSc1nc(N2CCOCC2)cc(C)c1C(=O)NCCC(C)(C)C [Example 104, N-(3,3-Dimethyl-butyl)-2-ethylsulfanyl-4-methyl-6-morpholin-4-yl-pyridine-3-carboxylic acid amide]	100	5.85
COCCOc1nc(N2CCOCC2)cc(C)c1C(=O)NCCCC(C)(C)C [Example 349, N-(4,4-Dimethyl-pentyl)-2-(2-methoxy-ethoxy)-4-methyl-6-morpholin-4-yl-pyridine-3-carboxylic acid amide]	216	6.55
COc1nc(N2CCOC[C@H]2C)cc(C)c1C(=O)NCc1ccc(F)cc1 [Example 181, N-[(4-Fluorophenyl)-methyl]-2-methoxy-4-methyl-6-[(3R)-3-methyl-morpholin-4-yl]-pyridine-3-carboxylic acid amide]	167	6.59
CCSc1nc(N2CCO[C@H](C)C2)cc(C)c1C(=O)NCc1cccc(F)c1 [Example 139, 2-Ethylsulfanyl-N-[(3-fluorophenyl)-methyl]-4-methyl-6-[(2R)-2-methyl-morpholin-4-yl]-pyridine-3-carboxylic acid amide]	146	6.11

Compound	Emax [%]	pEC50
COCCCc1nc(N2CCOCC2)cc(C)c1C(=O)NCCCC(C)(C)C [Example 354, N-(4,4-Dimethyl-pentyl)-2-(3-methoxy-propyl)-4-methyl-6-morpholin-4-yl-pyridine-3-carboxylic acid amide]	204	5.81
CCSc1nc(N2CCOCC2)cc(C(F)(F)F)c1C(=O)NCc1cccc(F)c1 [Example 11, 2-Ethylsulfanyl-N-[(3-fluorophenyl)-methyl]-6-morpholin-4-yl-4-(trifluoromethyl)-pyridine-3-carboxylic acid amide]	41	6.76
Cc1cc(N2CCOCC2)nc(C(C)C)c1C(=O)NCCC(O)C(F)(F)F (racemic) [Example X6, 2-Isopropyl-4-methyl-6-morpholin-4-yl-N-(4,4,4-trifluoro-3-hydroxy-butyl)-pyridine-3-carboxylic acid amide]		5.70
CCSc1nc(N2CCOCC2)cc(C)c1C(=O)NCCCC(C)(C)F [Example 319, 2-Ethylsulfanyl-N-(4-fluoro-4-methyl-pentyl)-4-methyl-6-morpholin-4-yl-pyridine-3-carboxylic acid amide]	233	6.46
COCc1cc(CNC(=O)c2c(C)cc(N3CCOCC3)nc2C2CC2)ccc1F [Example 351, 2-Cyclopropyl-N-[[4-fluoro-3-(methoxymethyl)-phenyl]methyl]-4-methyl-6-morpholin-4-yl-pyridine-3-carboxylic acid amide]	118	6.31
CCSc1nc(N2CC(=O)C2)cc(C)c1C(=O)NCc1cccc(F)c1 [Example 112, 2-Ethylsulfanyl-N-[(3-fluorophenyl)-methyl]-4-methyl-6-(3-oxo-azetidin-1-yl)-pyridine-3-carboxylic acid amide]	130	5.56
CCSc1nc(N2CCOCC2)cc(C)c1C(=O)NCc1ccc(C)cc1 [Example 161, 2-Ethylsulfanyl-4-methyl-6-morpholin-4-yl-N-(p-tolyl-methyl)-pyridine-3-carboxylic acid amide]	143	6.44
Cc1cc(N2CCOCC2)nc(OCC2CC2)c1C(=O)NCc1ccc(F)cc1 [Example 276, 2-(Cyclopropyl-methoxy)-N-[(4-fluorophenyl)-methyl]-4-methyl-6-morpholin-4-yl-pyridine-3-carboxylic acid amide]	102	6.84
CCSc1nc(N2CCOC(C)C2)cc(C)c1C(=O)NCCCC(C)(C)C (stereo not drawn) [Example 219, N-(4,4-Dimethyl-pentyl)-2-ethylsulfanyl-4-methyl-6-(2-methyl-morpholin-4-yl)-pyridine-3-carboxylic acid amide]	212	7.04
CCSc1nc(N2CCOCC2)cc(C)c1C(=O)NCC1CCCCO1 (stereo not drawn) [Example 69, 2-Ethylsulfanyl-4-methyl-6-morpholin-4-yl-N-(tetrahydro-pyran-2-yl-methyl)-pyridine-3-carboxylic acid amide]	160	5.35
Cc1cc(N2CCOC[C@H]2C)nc(C2CC2)c1C(=O)NCc1ccc(Cl)cc1 [Example 282, N-[(4-Chlorophenyl)-methyl]-2-cyclopropyl-4-methyl-6-[(3R)-3-methyl-morpholin-4-yl]-pyridine-3-carboxylic acid amide]	182	7.40
CCSc1nc(N2CCOCC2)cc(C)c1C(=O)NCC#CC(C)(C)C [Example 344, N-(4,4-Dimethyl-pent-2-ynyl)-2-ethylsulfanyl-4-methyl-6-morpholin-4-yl-pyridine-3-carboxylic acid amide]	253	7.39
CCSc1nc(N2CCC(OC)CC2)cc(C)c1C(=O)NCc1cccc(F)c1 [Example 49, 2-Ethylsulfanyl-N-[(3-fluorophenyl)-methyl]-6-(4-methoxy-piperidin-1-yl)-4-methyl-pyridine-3-carboxylic acid amide]	143	5.83
CCSc1nc(N2CCOC[C@H]2C)cc(C)c1C(=O)NCc1ccc(F)c(F)c1 [Example 225, N-[(3,4-Difluoro-phenyl)-methyl]-2-ethylsulfanyl-4-methyl-6-[(3R)-3-methyl-morpholin-4-yl]-pyridine-3-carboxylic acid amide]	173	7.15
CCOc1nc(N2CCOCC2)cc(C)c1C(=O)NCCCC(C)(C)C [Example 89, N-(4,4-Dimethyl-pentyl)-2-ethoxy-4-methyl-6-morpholin-4-yl-pyridine-3-carboxylic acid amide]	268	6.86
CCN(C)c1nc(N2CCOC[C@H]2C)cc(C)c1C(=O)NCc1ccc(F)cc1 [Example 173, 2-(Ethyl-methyl-amino)-N-[(4-fluorophenyl)-methyl]-4-methyl-6-[(3R)-3-methyl-morpholin-4-yl]-pyridine-3-carboxylic acid amide]	259	6.70
